Test results as given in US20230272484A1, “METHODS OF PROGNOSING, DETERMINING TREATMENT COURSE AND TREATING MULTIPLE MYELOMA” (Yeda Research and Development Co. Ltd., priority 2020, published 2023).

Test system: ex-vivo cultured patient malignant plasma cells (PRMM patient Z01)
Assay: FACS apoptosis assay (DAPI and Annexin-V) on ex vivo cultured patient cells
Assay type: cell-based, human
Conditions: resistant PRMM patient Z01, DAPI and Annexin-V FACS
Procedure: Finally, it was evaluated whether this synergistic effect is also relevant to PI resistant MM patients. For this end, the present inventors collected BM sample from a highly resistant PRMM patient (Z01, Methods) and sorted the cells for MARS-seq analysis, confirming the patient is also positive for the resistance signature 1 (FIGS. 9E-G). […] The present inventors evaluated the patient ex vivo response to these treatments by FACS analysis of apoptotic cells using DAPI and Annexin-V staining.

`CC(C)C[C@H](NC(=O)[C@H](CCc1ccccc1)NC(=O)CN1CCOCC1)C(=O)N[C@@H](Cc1ccccc1)C(=O)N[C@@H](CC(C)C)C(=O)[C@@]1(C)CO1` [Carfilzomib] was tested. Which live cells did it give?
The live cells was 23.4%.
